In paper PMC11272598, “RG7774 (Vicasinabin), an orally bioavailable cannabinoid receptor 2 (CB2R) agonist, decreases retinal vascular permeability, leukocyte adhesion, and ocular inflammation in animal models” (Frontiers in Pharmacology, 2024):

Tests used:
Human MAGL = target: T1, Human MAGL (Homo sapiens, UniProt Q99685); assay: Human MAGL assay (U937 cell extracts); assay type: biochemical; conditions: positive control 100 nM
T1 construct: Mouse brain or human U937 cell extracts (ATCC, Manassas, VI, USA); host or cells: U937 cells, 100,000 g supernatant
T1 sequence (Q99685 whole entry): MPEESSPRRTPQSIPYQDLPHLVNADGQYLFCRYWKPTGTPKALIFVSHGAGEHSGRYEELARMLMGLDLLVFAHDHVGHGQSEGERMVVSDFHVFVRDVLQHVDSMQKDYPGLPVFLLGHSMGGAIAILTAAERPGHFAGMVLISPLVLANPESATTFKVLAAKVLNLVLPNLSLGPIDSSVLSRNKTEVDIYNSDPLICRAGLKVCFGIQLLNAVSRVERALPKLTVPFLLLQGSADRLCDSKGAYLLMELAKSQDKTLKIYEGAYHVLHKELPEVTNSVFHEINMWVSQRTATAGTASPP
Experimental: The final supernatant was incubated with [^3H]-2-OG (10 µM) (ARC, MO, USA) at 37°C for 30 min as previously described, and reactions were stopped with a 2:1 (v/v) mixture of chloroform/methanol. [^3H]-glycerol release in the aqueous phase was measured by scintillation counting. […] Human supernatant (100 µg) was preincubated for 15 min at RT with 8 different concentrations of RG7774 (0.1-500 µM) in the incubation medium.

Human FAAH = target: T2, Human FAAH (Homo sapiens, UniProt O00519); assay: Human FAAH assay; assay type: biochemical; conditions: positive control 100 nM; read-out: Mean ± SEM % inhibition of control, Human FAAH
T2 construct: purchased Cayman Chemical Company
T2 sequence (O00519 whole entry): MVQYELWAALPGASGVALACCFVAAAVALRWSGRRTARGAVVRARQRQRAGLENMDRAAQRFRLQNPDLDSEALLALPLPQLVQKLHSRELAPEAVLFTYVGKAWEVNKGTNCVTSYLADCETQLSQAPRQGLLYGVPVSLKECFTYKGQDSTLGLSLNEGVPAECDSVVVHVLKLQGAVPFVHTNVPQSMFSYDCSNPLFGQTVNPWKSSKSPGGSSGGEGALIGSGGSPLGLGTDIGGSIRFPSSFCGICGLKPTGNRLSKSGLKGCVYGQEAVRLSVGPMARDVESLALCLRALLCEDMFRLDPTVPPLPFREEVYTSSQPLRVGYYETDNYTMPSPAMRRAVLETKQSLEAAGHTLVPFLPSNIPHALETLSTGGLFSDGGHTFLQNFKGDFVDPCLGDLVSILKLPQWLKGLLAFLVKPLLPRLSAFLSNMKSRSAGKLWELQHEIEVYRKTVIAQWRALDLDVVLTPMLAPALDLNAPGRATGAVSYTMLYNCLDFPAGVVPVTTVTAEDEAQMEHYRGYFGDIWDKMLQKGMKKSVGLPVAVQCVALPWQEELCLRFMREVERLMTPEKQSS
Experimental: (§1) Mouse brain was homogenized in 50 mM Tris-HCl (pH 7.4) using a glass potter, centrifuged at 1000 g for 10 min, and the pellet was discarded. The supernatant (50 µg) was incubated with [^14C]-AEA (10 µM) (ARC, MO, USA) at 37°C for 15 min (Tris-HCl, pH 9.0) and reactions were stopped with a 2:1 (v/v) mixture of chloroform/methanol. [^14C]-ethanolamine release in the aqueous phase was measured as previously reported. Mouse supernatants (50 µg) were preincubated with RG7774 (10 µM) for 15 min and added directly to the incubation medium. Purified human FAAH (1.7 µg; Cayman Chemical Company, MI, USA) was incubated with [^14C]-AEA (10 µM) (ARC, MO, USA) at 37°C for 15 min (pH 9.0), as previously described. […] for 15 min with 8 different concentrations of RG7774 (0.1-500 µM) and added directly to the incubation medium (250 µL). Control experiments was carried out in the presence of the FAAH inhibitor, URB-597 (100 nM).

Mouse FAAH = target: T3, Mouse FAAH (Mus musculus, UniProt O08914); assay: Mouse FAAH assay (brain); assay type: biochemical; conditions: positive control 100 nM; read-out: Mean ± SEM % inhibition of control, Mouse FAAH
T3 construct: Mouse brain was homogenized in 50 mM Tris-HCl (pH 7.4); from tissue; host or cells: mouse brain, 1000 g supernatant
T3 sequence (O08914 whole entry): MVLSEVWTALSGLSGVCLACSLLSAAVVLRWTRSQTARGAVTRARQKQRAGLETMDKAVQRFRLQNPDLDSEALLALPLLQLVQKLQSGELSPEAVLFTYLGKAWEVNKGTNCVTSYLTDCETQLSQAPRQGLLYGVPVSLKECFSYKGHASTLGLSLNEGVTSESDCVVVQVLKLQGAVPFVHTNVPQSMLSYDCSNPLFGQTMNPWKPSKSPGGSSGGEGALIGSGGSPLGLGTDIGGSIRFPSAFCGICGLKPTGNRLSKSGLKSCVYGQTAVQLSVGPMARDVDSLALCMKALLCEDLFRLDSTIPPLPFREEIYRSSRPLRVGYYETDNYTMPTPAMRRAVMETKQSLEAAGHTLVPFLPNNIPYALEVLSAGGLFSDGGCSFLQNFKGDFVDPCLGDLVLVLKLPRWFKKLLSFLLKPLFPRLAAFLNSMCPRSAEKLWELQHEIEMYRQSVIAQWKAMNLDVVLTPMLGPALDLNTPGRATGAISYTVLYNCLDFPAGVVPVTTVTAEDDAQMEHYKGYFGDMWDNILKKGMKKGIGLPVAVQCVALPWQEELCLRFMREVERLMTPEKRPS
Experimental: as §1

Human EMT = Human EMT activity (HaCaT cells); assay type: cell-based; conditions: positive control 40 µM
Experimental: HaCaT cells were seeded (350,000–400,000 cell/well) in triplicate in 12-well plates and incubated for 15 min in PBS at 37°C with [^3H]-N-arachidonoylethanolamine ([^3H]-AEA) (400 nM) (ARC, MO, USA), as previously reported. Experiments were repeated at 4°C in order to subtract passive diffusion from EMT-mediated uptake. RG7774 (10 µM) was preincubated with labeled HaCaT cells for 15 min before adding directly to the incubation medium (PBS). The selective EMT inhibitor, OMDM-1 (40 µM), was used as positive control.

Human 5-LOX = target: T4, Human 5-LOX (Homo sapiens, UniProt P09917); assay: Human 5-LOX assay; assay type: biochemical; conditions: positive control 100 µM
T4 construct: purchased Cayman Chemical Company #60402
T4 sequence (P09917 whole entry): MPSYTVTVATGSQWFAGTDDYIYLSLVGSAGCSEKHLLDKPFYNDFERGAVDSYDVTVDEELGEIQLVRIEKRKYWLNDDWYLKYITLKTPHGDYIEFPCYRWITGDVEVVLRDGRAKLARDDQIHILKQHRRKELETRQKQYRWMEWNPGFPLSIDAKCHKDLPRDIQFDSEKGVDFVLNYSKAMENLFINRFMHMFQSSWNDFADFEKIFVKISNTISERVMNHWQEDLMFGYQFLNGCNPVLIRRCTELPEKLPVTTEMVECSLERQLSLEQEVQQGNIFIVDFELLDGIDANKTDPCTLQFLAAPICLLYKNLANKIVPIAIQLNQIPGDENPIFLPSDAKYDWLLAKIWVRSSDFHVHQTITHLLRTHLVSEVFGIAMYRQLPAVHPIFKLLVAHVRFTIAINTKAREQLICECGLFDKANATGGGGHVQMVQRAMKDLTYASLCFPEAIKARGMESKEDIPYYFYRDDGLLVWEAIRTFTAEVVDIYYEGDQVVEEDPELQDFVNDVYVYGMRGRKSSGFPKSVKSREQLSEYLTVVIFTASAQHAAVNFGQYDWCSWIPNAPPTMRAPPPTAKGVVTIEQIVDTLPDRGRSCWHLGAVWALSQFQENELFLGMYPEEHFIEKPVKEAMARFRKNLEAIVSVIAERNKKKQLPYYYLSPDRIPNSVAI
Experimental: (§2) The inhibitory effects of different concentrations of RG7774 (0.1-500 µM) on the activities of human recombinant 5-LOX (Cayman Chemical Company #60402), 15-LOX (Cayman Chemical Company #10011263), and human platelet-derived 12-LOX were determined using the Biovision Lipoxygenase Activity Assay Kit (#BVN-K978-100). This kit converts the LOX substrate to an intermediate that reacted with the probe, generating a fluorescent product. The effect of RG7774 (preincubated for 15 min) at 10 µM on LOXs (5-LOX: 0.5 or 1.2 µg; 12-LOX: 20 µg; 15-LOX: 0.23 or 0.3 µg) was ascertained by adding the compounds directly to the incubation medium and the fluorescent signal, recorded at excitation/emission 500/536 nm at 30 sec intervals for 30-40 min, was directly proportional to LOX activity. […] The percentage of human 5-, 12-, and 15-LOX activity (control) was estimated from the amount of oxidized probe in the reaction using a standard curve.

Human 12-LOX = target: T5, Human 12-LOX (Homo sapiens, UniProt P18054); assay: Human 12-LOX assay; assay type: biochemical; conditions: positive control 100 µM
T5 construct: human platelet-derived 12-LOX; from tissue; host or cells: human platelets
T5 sequence (P18054 whole entry): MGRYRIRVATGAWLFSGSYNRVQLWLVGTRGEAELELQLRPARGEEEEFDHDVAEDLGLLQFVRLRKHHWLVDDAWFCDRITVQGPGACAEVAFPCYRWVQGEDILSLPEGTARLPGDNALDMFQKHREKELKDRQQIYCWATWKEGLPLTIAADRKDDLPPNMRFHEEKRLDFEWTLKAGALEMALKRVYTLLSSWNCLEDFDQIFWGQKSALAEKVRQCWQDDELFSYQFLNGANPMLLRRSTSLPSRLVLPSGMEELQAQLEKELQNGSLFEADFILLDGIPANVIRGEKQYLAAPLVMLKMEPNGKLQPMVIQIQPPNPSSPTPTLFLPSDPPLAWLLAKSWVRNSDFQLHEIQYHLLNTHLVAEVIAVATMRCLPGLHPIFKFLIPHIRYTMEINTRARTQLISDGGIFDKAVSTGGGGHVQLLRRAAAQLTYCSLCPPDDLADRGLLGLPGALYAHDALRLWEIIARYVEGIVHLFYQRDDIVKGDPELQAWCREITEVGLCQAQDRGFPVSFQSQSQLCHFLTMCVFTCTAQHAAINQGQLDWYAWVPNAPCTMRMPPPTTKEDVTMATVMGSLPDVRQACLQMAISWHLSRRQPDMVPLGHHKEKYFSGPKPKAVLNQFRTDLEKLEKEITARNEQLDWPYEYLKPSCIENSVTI
Experimental: as §2

Jurkat cells = assay: xCELLigence impedance assay in Jurkat cells; assay type: cell-based, human; conditions: co-treatment with RG7774
Experimental: Background impedance was determined in 96-well RTCA E-plates (Agilent Technologies, Santa Clara, CA, United States) coated with 150 μg/mL fibronectin/H2O (Sigma-Aldrich, St. Louis, MO, United States) and containing 50 μL RPMI 1640 assay medium (Fisher Scientific, Schwerte, Germany) 31870) with 10% fetal calf serum (FCS). Jurkat cells (200,000 cells per well) were seeded in 100 μL of growth medium, allowed to settle for 30 min at RT, and cultured overnight at 37°C and 5% CO2. Dose-response curves were generated by adding increasing concentrations of RG7774 to seeded Jurkat cells and performing impedance measurements (xCelligence RTCA M, Agilent Technologies, Santa Clara, CA, United States) at baseline and 1 h after treatment. Displacement experiments were performed by incubating seeded Jurkat cells with 10 μM SR144528, a CB2R-selective antagonist (Tocris Bioscience, Bristol, United Kingdom) or 10 μM RO6851228 (a CB2R-selective inverse agonist; in-house synthesis) in assay medium overnight at 37°C and 5% CO2. Cells were re-treated with 10 μM SR144528 or […] for 1 h and stimulated with 233 nM RG7774 in assay medium. […] Displacement data are presented as the percentage of the maximal normalized cell index determined after antagonist/inverse agonist treatment relative to the percentage of the normalized cell index at 109 nM RG7774 treatment.

Mouse DAGL = Mouse DAGL assay (brain); assay type: biochemical; conditions: positive control 10 µM
Experimental: (§3) Mouse brain or human HaCaT cells (CLS Cell Lines Service, GmbH, Eppelheim, Germany) were homogenized in 50 mM Tris-HCl (pH 7.4) using a glass potter, and homogenates were centrifuged at 4°C sequentially at 800 g (10 min) and 10,000 g (30 min). The final pellet (80–200 µg) was resuspended in 50 mM Tris-HCl (pH 7.4) containing 10 mM CaCl2 and incubated at 37°C for 30 min with sn-1[^14C]-stearoyl-2-arachidonoyl-glycerol (100 µM) (ARC, MO, USA). Reactions were stopped by adding chloroform/methanol (2:1, v/v), and the organic phase was dried and fractionated by thin-layer chromatography on silica gel, as previously reported. Levels of 1[^14C]-stearoyl acid radioactivity were determined by cutting the appropriate band from the gel and analyzing using a β-scintillation counter. Mouse cells were preincubated for 15 min with RG7774 (10 µM) and added to the incubation medium. Human cells were preincubated for 15 min with 8 different concentrations of RG7774 (0.1-500 µM) and added to the incubation medium. Control experiments were carried out in the presence of the selective DAGL inhibitor, D053 (10 µM).

Human DAGL = Human DAGL assay (HaCaT cells); assay type: biochemical; conditions: positive control 10 µM
Experimental: as §3

Mouse CB1R = Mouse CB1R (Mus musculus, UniProt P47746); assay: Mouse cAMP assay in N18TG2 cells; assay type: cell-based; set-up: inhibition at 0.1 µM: reference not given here; conditions: N18TG2, read-out: Mean ± SEM % inhibition of control, Mouse CB1R (cAMP assay)
Sequence of Mouse CB1R (P47746 whole entry): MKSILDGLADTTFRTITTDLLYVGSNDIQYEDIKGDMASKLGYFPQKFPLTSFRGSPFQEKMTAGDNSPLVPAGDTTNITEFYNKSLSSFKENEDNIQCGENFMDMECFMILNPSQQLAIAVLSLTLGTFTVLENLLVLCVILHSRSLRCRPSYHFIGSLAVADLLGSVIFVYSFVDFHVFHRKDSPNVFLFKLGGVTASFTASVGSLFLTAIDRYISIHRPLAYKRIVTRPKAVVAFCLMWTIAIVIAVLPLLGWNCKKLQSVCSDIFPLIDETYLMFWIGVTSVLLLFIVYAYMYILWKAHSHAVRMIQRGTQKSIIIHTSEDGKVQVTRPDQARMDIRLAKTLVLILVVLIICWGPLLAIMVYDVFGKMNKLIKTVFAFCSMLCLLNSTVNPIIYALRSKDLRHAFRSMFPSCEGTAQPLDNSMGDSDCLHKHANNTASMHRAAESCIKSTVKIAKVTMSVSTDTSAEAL
Experimental: The effect of RG7774 on the forskolin-stimulated accumulation of cAMP was determined using the LANCE ULTRAcAMP kit (PerkinElmer Life Sciences, MA, USA), according to the manufacturer’s instructions. Briefly, N18TG2 cells preincubated for 30 min with 1-methyl-3-isobutylxanthine (1 mM) were added to 0.5 µM forskolin preincubated with or without RG7774 for 15 min. Reactions were incubated for 30 min at 37°C and Time-resolved fluorescence was measured using a Victor V Multilabel counter (PerkinElmer Life Sciences). Data were transformed into cAMP concentrations using a standard curve.

## O=C(Oc1ccc([N+](=O)[O-])cc1)N1CCC(C(O)(c2ccc3c(c2)OCO3)c2ccc3c(c2)OCO3)CC1 [JZL-184, reference compound]
Human MAGL
  Mean ± SEM % inhibition of control, Human MAGL: 84.3 ± 3.4%

## NC(=O)c1cccc(-c2cccc(OC(=O)NC3CCCCC3)c2)c1 [URB-597, reference compound]
Human FAAH
  inhibition at 0.1 µM: 92.8 ± 6.1%
Mouse FAAH
  inhibition at 0.1 µM: 83.2 ± 4.6%

## CCCCCCCC/C=C\CCCCCCCC(=O)N[C@H](CO)Cc1ccc(O)cc1 [OMDM-1, reference compound]
Human EMT
  Mean ± SEM % inhibition of control, Human EMT: 95.5 ± 0.4%

## CC(Cc1ccc(O)c(O)c1)C(C)Cc1ccc(O)c(O)c1 (stereo not shown) [NDGA, reference compound]
Human 5-LOX
  Mean ± SEM % inhibition of control, Human 5-LOX: 126.6 ± 2.4%
Human 12-LOX
  Mean ± SEM % inhibition of control, Human 12-LOX: 84.6 ± 0.7%

## SR144528 [reference compound]
Jurkat cells
  inhibition of RG7774-induced increase in maximal normalized cell index: fully inhibited

## CC(C)(C)OC(=O)N1CCN(C(=O)n2cc(-c3ccc(OC(F)(F)F)cc3)nn2)C(c2ccccc2)C1 (stereo not shown) [DO53, reference compound]
Mouse DAGL
  Mean ± SEM % inhibition of control, Mouse DAGL: 60.4 ± 4.3%
Human DAGL
  Mean ± SEM % inhibition of control, Human DAGL: 103.1 ± 13.2%

## CCCCCCC(C)(C)c1ccc([C@@H]2C[C@H](O)CC[C@H]2CCCO)c(O)c1 [CP-55940, reference compound]
Mouse CB1R
  inhibition at 0.1 µM: 91.5 ± 2.6%
